Columns and labels:
Assay type in all cases: cell-based
[1] = test system: Haemophilus influenzae RD; assay: MIC, standard broth micro-dilution assay, HFRD
Description: (§1) The antibacterial efficacy of the present compounds is illustrated by Table III. The minimal inhibitory concentrations (MICs) were determined using a standard broth micro-dilution assay.

[2] = test system: Enterococcus faecalis 2041; assay: MIC, standard broth micro-dilution assay, EF 2041
Description: as §1

[3] = test system: Enterococcus gallinarum 245; assay: MIC, standard broth micro-dilution assay, EG 245
Description: as §1

[4] = test system: Staphylococcus aureus 447; assay: MIC, standard broth micro-dilution assay, SA 447
Description: as §1

[5] = test system: Enterococcus faecium 180-1; assay: MIC, standard broth micro-dilution assay, EF 180-1
Description: as §1

[6] = test system: Staphylococcus aureus SA1199; assay: MIC, standard broth micro-dilution assay, SA 1199
Description: as §1

[7] = test system: Staphylococcus aureus X778; assay: MIC, standard broth micro-dilution assay, SA X778
Description: as §1

[8] = test system: Staphylococcus aureus S13E
Description: as §1

[9] = test system: Staphylococcus aureus 489; assay: MIC, standard broth micro-dilution assay, SA 489
Description: as §1

Enterococcus faecium 180 = assay: MIC, standard broth micro-dilution assay, EF 180
Description: as §1

[10] = test system: Staphylococcus haemolyticus 105; assay: MIC, standard broth micro-dilution assay, SH 105
Description: as §1

[11] = test system: Staphylococcus aureus SA1199A; assay: MIC, standard broth micro-dilution assay, SA 1199A
Description: as §1

[12] = test system: Enterococcus faecalis 276; assay: MIC, standard broth micro-dilution assay, EF 276
Description: as §1

[13] = test system: Staphylococcus aureus 446; assay: MIC, standard broth micro-dilution assay, SA 446
Description: as §1

[14] = test system: Staphylococcus aureus 491; assay: MIC, standard broth micro-dilution assay, SA 491
Description: as §1

[15] = test system: Resistant Enterococcus faecium and faecalis; assay: MIC, standard broth micro-dilution assay, Resistant; settings: geometric mean of 4-6 isolates
Description: as §1

[16] = test system: Sensitive Enterococcus faecium and faecalis; assay: MIC, standard broth micro-dilution assay, Sensitive; settings: geometric mean of 4-6 isolates
Description: as §1

Escherichia coli EC14 = assay: MIC, standard broth micro-dilution assay, EC 14
Description: as §1

[17] = test system: Staphylococcus epidermidis 270; assay: MIC, standard broth micro-dilution assay, SE 270
Description: as §1

[18] = test system: Staphylococcus aureus X400; assay: MIC, standard broth micro-dilution assay, SA X400
Description: as §1

[19] = test system: Staphylococcus haemolyticus 415; assay: MIC, standard broth micro-dilution assay, SH 415
Description: as §1

| Compound | minimal inhibitory concentration (MIC), HFRD [1] | minimal inhibitory concentration (MIC), EF 2041 [2] | minimal inhibitory concentration (MIC), EG 245 [3] | minimal inhibitory concentration (MIC), SA 447 [4] | minimal inhibitory concentration (MIC), EF 180-1 [5] | minimal inhibitory concentration (MIC), SA 1199 [6] | minimal inhibitory concentration (MIC), SA X778 [7] | minimal inhibitory concentration (MIC), SA S13E [8] | minimal inhibitory concentration (MIC), SA 489 [9] | minimal inhibitory concentration (MIC), EF 180 (Enterococcus faecium 180) | minimal inhibitory concentration (MIC), SH 105 [10] | minimal inhibitory concentration (MIC), SA 1199A [11] | minimal inhibitory concentration (MIC), EF 276 [12] | minimal inhibitory concentration (MIC), SA 446 [13] | minimal inhibitory concentration (MIC), SA 491 [14] | minimal inhibitory concentration (MIC), Resistant [15] | minimal inhibitory concentration (MIC), Sensitive [16] | minimal inhibitory concentration (MIC), EC 14 (Escherichia coli EC14) | minimal inhibitory concentration (MIC), SE 270 [17] | minimal inhibitory concentration (MIC), SA X400 [18] | other results |
| --- | --- | --- | --- | --- | --- | --- | --- | --- | --- | --- | --- | --- | --- | --- | --- | --- | --- | --- | --- | --- | --- |
| CC1OC(OC2c3ccc(c(Cl)c3)Oc3cc4cc(c3OC3OC(CO)C(O)C(O)C3OC3CC(C)(NCc5ccc(-c6ccc(Cl)cc6)cc5)C(O)C(C)O3)Oc3ccc(cc3Cl)C(O)C(NC(=O)CCCCCCNC(=O)OC(C)(C)C)C(=O)NC(CC(N)=O)C(=O)NC4C(=O)NC3C(=O)NC2C(=O)NC(C(=O)O)c2cc(O)cc(O)c2-c2cc3ccc2O)CC(C)(N)C1O (stereo not drawn) [Example 9, N^1- [7-(tert-butoxycarboxamido)-n-heptanoyl]-N^DISACC-[p-(p-chlorophenyl)benzyl]desleucylA82846B] | >64 | 0.5 | 1 | 2 | 0.5 | 1 | 1 | 1 | 1 | 2 | 0.5 | 0.25 | 1 | 2 | 1 | 4.8 | 0.66 | >64 | 1 | 2 | minimal inhibitory concentration (MIC), SH 415 [19]: 1 |
| CC(C)C(C(=O)NC1C(=O)NC(CC(N)=O)C(=O)NC2C(=O)NC3C(=O)NC(C(=O)NC(C(=O)O)c4cc(O)cc(O)c4-c4cc3ccc4O)C(OC3CC(C)(N)C(O)C(C)O3)c3ccc(c(Cl)c3)Oc3cc2cc(c3OC2OC(CO)C(O)C(O)C2OC2CC(C)(N)C(O)C(C)O2)Oc2ccc(cc2Cl)C1O)N(C)C(=O)OC(C)(C)C [Example 41, N^1-(N-BOC-N-methyl-D-valine) derivative of desleucylA82846B] | no | 8 | >64 | 32 | 4 | 16 | 8 | 16 | 16 | >64 | 16 | 8 | 8 | 32 | 4 | >128 | 84 | >64 | 8 | 16 | minimal inhibitory concentration (MIC), SH 415 [19]: 64 |
| CC1OC(OC2c3ccc(c(Cl)c3)Oc3cc4cc(c3OC3OC(CO)C(O)C(O)C3OC3CC(C)(N)C(O)C(C)O3)Oc3ccc(cc3Cl)C(O)C(NC(=O)C(Cc3ccccc3)N(C)C(=O)OC(C)(C)C)C(=O)NC(CC(N)=O)C(=O)NC4C(=O)NC3C(=O)NC2C(=O)NC(C(=O)O)c2cc(O)cc(O)c2-c2cc3ccc2O)CC(C)(N)C1O [Example 40, N^1-(N-BOC-N-methyl-D-phenylalanine) derivative of desleucylA82846B] | >64 | 2 | 16 | 8 | 4 | 4 | 4 | 4 | 4 | >64 | 4 | 2 | 1 | 4 | 2 | >128 | 9.2 | >64 | 4 | 4 | minimal inhibitory concentration (MIC), SH 415 [19]: 64 |
| CC1OC(OC2c3ccc(c(Cl)c3)Oc3cc4cc(c3OC3OC(CO)C(O)C(O)C3OC3CC(C)(NCc5ccc(-c6ccc(Cl)cc6)cc5)C(O)C(C)O3)Oc3ccc(cc3Cl)C(O)C(NC(=O)CCCCCCCc3ccccc3)C(=O)NC(CC(N)=O)C(=O)NC4C(=O)NC3C(=O)NC2C(=O)NC(C(=O)O)c2cc(O)cc(O)c2-c2cc3ccc2O)CC(C)(N)C1O (stereo not drawn) [Example 8, N^1-(8-phenyl-n-octanoyl)-N^DISACC-[p-(p-chlorophenyl)benzyl]desleucylA82846B] | >64 | 2 | 2 | 8 | 1 | 4 | 4 | 8 | 8 | 2 | 2 | 2 | 1 | 16 | 4 | 4 | 2 | >64 | 8 | 8 | minimal inhibitory concentration (MIC), SH 415 [19]: 8 |
| CC(C)CCC(=O)NC1C(=O)NC(CC(N)=O)C(=O)NC2C(=O)NC3C(=O)NC(C(=O)NC(C(=O)O)c4cc(O)cc(O)c4-c4cc3ccc4O)C(OC3CC(C)(N)C(O)C(C)O3)c3ccc(c(Cl)c3)Oc3cc2cc(c3OC2OC(CO)C(O)C(O)C2OC2CC(C)(NCc3ccc(-c4ccccc4)cc3)C(O)C(C)O2)Oc2ccc(cc2Cl)C1O (stereo not drawn) [Example 5, N^1-(4-methyl-n-pentanoyl)-N^DISACC-(p-phenylbenzyl)desleucylA82846B] | >64 | ≦.06 | 0.25 | ≦.06 | ≦.06 | 0.25 | 0.125 | 0.125 | 0.125 | 4 | ≦.06 | ≦.06 | 1 | 0.125 | ≦.06 | 27 | 0.44 | >64 | 0.25 | ≦.06 | minimal inhibitory concentration (MIC), SH 415 [19]: 1 |

Reference: US6670446B1, “N1 modified glycopeptides” (Eli Lilly and Company, priority 1998, dated 2003)
